What all share (assay type): in vivo
For one test, the system named is aphids, Myzus persicae. The test is described as follows: Potter tower spray on aphids, knockdown and mortality. The settings on record: Aphids. An excerpt: (§1) The compounds were screened for insecticidal efficacy against aphids, Myzus persicae, Cabbage moth, Mamestra brassicae, diamond black moths, Plutella xylostella, red spider mites, Tetranychus urticae, whitefly, Trialeurodes vaporariorum, in terms of knockdown and mortality.
(§2) Myzus persicae, Cabbage moth, Mamestra brassicae, diamond back moths, Plutella xylostella, red spider mites, Tetranychus urticae, whitefly, Trialeurodes vaporariorum, were obtained from specified laboratory cultures. Mixed sex and age aphids and mites, moth larvae and whitefly scale infested leaves were used in the experiments. Environmental conditions were closely monitored and recorded and were within the optimal range of the target species.
(§3) The compounds were screened at a range of five concentrations, diluted in DMSO. Some of the compounds were screened against aphids, whitefly and red spider mites and other compounds were screened against cabbage moth, and diamond black moths. A carrier only and an untreated control will also be conducted. Treatments were applied directly onto the insects within Petri dishes, using a potter tower.
(§4) Twenty mites and ten aphids, scales and moth larvae were placed within a Petri dish, lined with a suitable leaf disc on a damp cotton wool pad. Scales were already on leaves. The Petri dishes were then sprayed using a potter tower. The number of knocked down and anthropods were assessed at 24 and 48 hours post treatment. Five replicates were be performed for each treatment, for each species.
(§5) For Tables 2, 4, 5 and 6, the compounds were diluted in DMSO containing 1% v/v Tween 20™. For Tables 2, 4, 5 and 6, the caterpillars were a mixture of Mamestra brassicae and Lacanobia oleracea.

Test [1] concerns red spider mites, Tetranychus urticae. The test is described as follows: Potter tower spray on red spider mites, knockdown and mortality. The settings on record: Spider mites.
Description: as §1, §2, §3, §4

The test system of test [2] is caterpillars, a mixture of Mamestra brassicae and Lacanobia oleracea. As to the kind of experiment: Potter tower spray on caterpillars, knockdown and mortality. The settings on record: for pest or weed control at 0.003125 % strength / pest or weed control at 0.0125 % strength / pest or weed control at 0.025 % strength / Average of % corrected affected: Caterpillars; for pest or weed control at 0.003125 % strength / pest or weed control at 0.0125 % strength / pest or weed control at 0.025 % strength: read-out: Average of % corrected affected.
Description: as §2, §3, §4, §5

[3] abbreviates: 0.0125 % w/v, 48 hours post application.
The mark [4] stands for this setting: 0.025 % w/v, 24 hours post application.
[5] abbreviates: 0.025 % w/v, 48 hours post application.

This is an account of results in patent US20160212997A1, “AGRICULTURAL CHEMICALS” (REDAG CROP PROTECTION LTD, priority 2013, published 2016).

Read-outs that look alike come from different tables or passages of the source.

With `O=C1C=C(N(Cc2ccc(Cl)nc2)CC(F)F)CO1` [Compound 1, 3-[(6-Chloro-3-pyridyl)methyl-(2,2-difluoroethyl)amino]-2H-furan-5-one, reference compound], the percentage control result with aphids, Myzus persicae (25 g/ha, 24 h) was “E (A percentage control of from 1 to 19 is indicated by the letter E)”; with aphids, Myzus persicae (25 g/ha, 48 h), “C (A percentage control of from 40 to 59 is indicated by the letter C)”; in the test on aphids, Myzus persicae (50 g/ha, 24 h), “D (A percentage control of from 20 to 39 is indicated by the letter D)”; in the test with aphids, Myzus persicae (50 g/ha, 48 h) it was “A (A percentage control of from 80 to 100 is indicated by the letter A)”; with aphids, Myzus persicae (100 g/ha, 24 h) it was “D (A percentage control of from 20 to 39 is indicated by the letter D)”; in the test on aphids, Myzus persicae (100 g/ha, 48 h) it was “A (A percentage control of from 80 to 100 is indicated by the letter A)”. The percentage control entry in the test with aphids, Myzus persicae (200 g/ha, 24 h) was “C (A percentage control of from 40 to 59 is indicated by the letter C)”; in the test on aphids, Myzus persicae (200 g/ha, 48 h), “A (A percentage control of from 80 to 100 is indicated by the letter A)”; with aphids, Myzus persicae (400 g/ha, 24 h) it was “B (A percentage control of from 60 to 79 is indicated by the letter B)”; in the test on aphids, Myzus persicae (400 g/ha, 48 h), “A (A percentage control of from 80 to 100 is indicated by the letter A)”; in test [1] (25 g/ha, 24 h), “D (A percentage control of from 20 to 39 is indicated by the letter D)”; in test [1] (25 g/ha, 48 h) it was “D (A percentage control of from 20 to 39 is indicated by the letter D)”. Further, the percentage control entry in test [1] (50 g/ha, 24 h) is reported as “D (A percentage control of from 20 to 39 is indicated by the letter D)”; in test [1] (50 g/ha, 48 h) it was “D (A percentage control of from 20 to 39 is indicated by the letter D)”; in test [1] (100 g/ha, 24 h), “E (A percentage control of from 1 to 19 is indicated by the letter E)”; in test [1] (100 g/ha, 48 h), “D (A percentage control of from 20 to 39 is indicated by the letter D)”; in test [1] (200 g/ha, 24 h), “D (A percentage control of from 20 to 39 is indicated by the letter D)”; in test [1] (200 g/ha, 48 h), “D (A percentage control of from 20 to 39 is indicated by the letter D)”. The percentage control entry in test [1] (400 g/ha, 24 h) was “D (A percentage control of from 20 to 39 is indicated by the letter D)”; in test [1] (400 g/ha, 48 h), “C (A percentage control of from 40 to 59 is indicated by the letter C)”.

`O=C(Nc1ccc(-c2cncnc2)oc1=O)C1CC1` [Compound 26, N-[2-Oxo-6-(5-pyrimidyl)pyran-3-yl]cyclopropanecarboxamide]: the “control against caterpillars compared with reference compound 25” value in test [2] (0.05%) is “greater control”. For the same compound, the pest or weed control at 0.003125 % strength lay in the range of 1 to 19% in test [2] (24 h, 0.003125 % w/v, 24 hours post application) and 1 to 19% in test [2] (48 h, 0.003125 % w/v, 48 hours post application). In addition, the pest or weed control at 0.0125 % strength in test [2] (24 h, 0.0125 % w/v, 24 hours post application) fell in the range of 1 to 19%; in test [2] (48 h, 0.0125 % w/v, 48 hours post application) it was 1 to 19%; in the test on aphids, Myzus persicae (Myzus persicae, 48 h, 0.0125 % w/v, 48 hours post application, read-out: Average of % corrected affected) it was 1 to 19%. Also, the pest or weed control at 0.025 % strength in test [2] (24 h, 0.025 % w/v, 24 hours post application) fell in the range of 1 to 19%; in test [2] (48 h, 0.025 % w/v, 48 hours post application), 1 to 19%; in the test on aphids, Myzus persicae (Myzus persicae, 24 h, 0.025 % w/v, 24 hours post application, read-out: Average of % corrected affected), 1 to 19%. For the same compound, the “Average of % corrected affected” value was “E (A percentage control of from 1 to 19 is indicated by the letter E)” in test [2] (0.003125 % w/v, 24 hours post application); “E (A percentage control of from 1 to 19 is indicated by the letter E)” in test [2] (0.003125 % w/v, 48 hours post application); “E (A percentage control of from 1 to 19 is indicated by the letter E)” in test [2] (0.0125 % w/v, 24 hours post application); “E (A percentage control of from 1 to 19 is indicated by the letter E)” in test [2] (setting [3]); “E (A percentage control of from 1 to 19 is indicated by the letter E)” in test [2] (setting [4]); “E (A percentage control of from 1 to 19 is indicated by the letter E)” in test [2] (setting [5]). The “Average of % corrected affected” value with aphids, Myzus persicae (0.00625 % w/v, 24 hours post application) is “E (A percentage control of from 1 to 19 is indicated by the letter E)”; in the test on aphids, Myzus persicae (setting [3]) it was “E (A percentage control of from 1 to 19 is indicated by the letter E)”; with aphids, Myzus persicae (setting [4]), “E (A percentage control of from 1 to 19 is indicated by the letter E)”; with aphids, Myzus persicae (setting [5]), “E (A percentage control of from 1 to 19 is indicated by the letter E)”; with aphids, Myzus persicae (0.05 % w/v, 24 hours post application), “E (A percentage control of from 1 to 19 is indicated by the letter E)”; with aphids, Myzus persicae (0.05 % w/v, 48 hours post application), “E (A percentage control of from 1 to 19 is indicated by the letter E)”. Moreover, the pest or weed control at 0.00625 % strength in the test with aphids, Myzus persicae (Myzus persicae, 24 h, 0.00625 % w/v, 24 hours post application, read-out: Average of % corrected affected) fell in the range of 1 to 19%. Moreover, the pest or weed control at 0.05 % strength lay within 1 to 19% in the test with aphids, Myzus persicae (Myzus persicae, 24 h, 0.05 % w/v, 24 hours post application, read-out: Average of % corrected affected) and 1 to 19% in the test on aphids, Myzus persicae (Myzus persicae, 48 h, 0.05 % w/v, 48 hours post application, read-out: Average of % corrected affected).
